These are literature values, as cited in patent US7251609B1, “Method for conducting clinical trials over the internet” (The Trustees of Boston University, priority 1999, dated 2007).

Each structure is given as a SMILES string.

The series concerns patients with knee OA.

Consider `Cl.N[C@H]1C(O)O[C@H](CO)[C@@H](O)[C@@H]1O` (stereo partly drawn) [glucosamine hydrochloride], for which the major adverse events result (94 patients with knee OA) is recorded as “No major adverse events”. Where the note is “94 patients with knee OA, identical rate in glucosamine and placebo groups”, the “rate of minor adverse symptoms” value is reported as 12%. Besides, the efficacy entry (study of Houpt et al, knee OA) is reported as “only modest efficacy”.
